The results in this text go back to patent US12629374B2, “Antimalarial agents” (Merck Sharp & Dohme LLC, priority 2020, dated 2026).

The EC50 is the midpoint of the concentration-response curve.

For one test, the system named is ring stage parasites. Kind of test: Parasite growth potency assay, 72 hours, LDH readout. In kind it is cell-based. The following applies: 72 h, parasite growth measured by LDH assay after 72 hours at 37° C.; 0.7% rings, 2% haematocrit; read-out: EC50. The procedure, abridged: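 Parasite growth was quantified by LDH assay after a −80 °C freeze-thaw. Before that, compound was incubated for 72 h at 37 °C under humidified gas with ring-stage cultures adjusted to 0.7% parasitemia and 2% haematocrit in serum- and albumax-supplemented RPMI-Hepes.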
Take `CCC[C@H](c1cccc(C(=O)N[C@@H]2c3ccccc3OC(C)(C)[C@H]2O)c1)N1C(=N)NC(CC)(CC)CC1=O` [Example 119A, [4,4-diethyl-1-[(1R)-1-[3-[(3-hydroxy-2,2-dimethyl-chroman-4-yl)carbamoyl]phenyl]butyl]-6-oxo-hexahydropyrimidin-2-ylidene]ammonium; 2,2,2-trifluoroacetate]: the EC50 stood at 0.5 nM.
With `CCC1(CC)CC(=O)N([C@H](CCC#N)c2cccc(C(=O)N[C@H]3CC(C)(C)Oc4ccccc43)c2)C(=N)N1` [Example 107, [1-[3-cyano-1-[3-[[(4S)-2,2-dimethylchroman-4-yl]carbamoyl]phenyl]propyl]-4,4-diethyl-6-oxo-hexahydropyrimidin-2-ylidene]ammonium; 2,2,2-trifluoroacetate], the EC50 came to 0.2 nM.
For `CCC1(CC)CC(=O)N(Cc2cc(F)cc(C(=O)N[C@@H]3c4ccccc4OC(C)(C)[C@H]3O)c2)C(=N)N1` [Example 141, [4,4-diethyl-1-[[3-fluoro-5-[[(3S,4R)-3-hydroxy-2,2-dimethyl-chroman-4-yl]carbamoyl]phenyl]methyl]-6-oxo-hexahydropyrimidin-2-ylidene]ammonium; 2,2,2-trifluoroacetate], the concentration for a half-maximal effect (EC50) is 0.8 nM.
Same read-out and setting: next, `CCC1(CC)CC(=O)N(Cc2cccc(C(=O)N[C@H]3CCOc4ccc(C)cc43)c2)C(=N)N1` (stereo in doubt) [Example 217, 3-[(4,4-diethyl-2-imino-6-oxo-hexahydropyrimidin-1-yl)methyl]-N-(6-methylchroman-4-yl)benzamide]: 10 nM; `CCC1(CC)CC(=O)N(Cc2cccc(C(=O)N[C@@H]3c4ccccc4OC3(C)C)c2)C(=N)N1` (stereo in doubt) [Example 186, [1-[[3-[(2,2-dimethyl-3H-benzofuran-3-yl)carbamoyl]phenyl]methyl]-4,4-diethyl-6-oxo-hexahydropyrimidin-2-ylidene]ammonium; 2,2,2-trifluoroacetate]: 10.9 nM.
Same read-out and setting: next, `CC(C)[C@]1(C)CC(=O)N(Cc2cccc(C(=O)N[C@@H]3c4ccccc4C[C@@H]3O)c2)C(=N)N1` [Example 18, [(4S)-1-[[3-[[(1R,2S)-2-hydroxyindan-1-yl]carbamoyl]phenyl]methyl]-4-isopropyl-4-methyl-6-oxo-hexahydropyrimidin-2-ylidene]ammonium; 2,2,2-trifluoroacetate]: 21.5 nM.
Take `N=C1N[C@@](CC2CC2)(c2ccccc2)CC(=O)N1Cc1cccc(C(=O)N[C@@H]2CCOc3ccccc32)c1` [Example 6B, [(4R)-1-[[3-[[(4R)-chroman-4-yl]carbamoyl]phenyl]methyl]-4-(cyclopropylmethyl)-6-oxo-4-phenyl-hexahydropyrimidin-2-ylidene]ammonium; 2,2,2-trifluoroacetate]: the EC50 came to 83.9 nM.
Same read-out and setting: next, `CCC1(CC)CC(=O)N([C@@H](c2ccc(S(C)(=O)=O)cc2)c2cccc(C(=O)N[C@H]3CC(C)(C)Oc4ccccc43)c2)C(=N)N1` [Example 115B, [1-[[3-[[(4S)-2,2-dimethylchroman-4-yl]carbamoyl]phenyl]-(4-methylsulfonylphenyl)methyl]-4,4-diethyl-6-oxo-hexahydropyrimidin-2-ylidene]ammonium; 2,2,2-trifluoroacetate]: 4.4 nM.
The same measure, in the same setting: for `CCC1(CC)CC(=O)N([C@@H](c2cccc(C(=O)N[C@H]3CC(C)(C)Oc4ccccc43)c2)C(C)c2cccnc2)C(=N)N1` (stereo partly drawn) [Example 96, [1-[1-[3-[[(4S)-2,2-dimethylchroman-4-yl]carbamoyl]phenyl]-2-pyridin-1-ium-3-yl-propyl]-4,4-diethyl-6-oxo-hexahydropyrimidin-2-ylidenelammonium; 2,2,2-trifluoroacetate] the value was 19.9 nM.
For `CCC1(CC)CC(=O)N(Cc2cc(F)cc(C(=O)N[C@@H]3c4cc(F)ccc4OC(C)(C)[C@H]3O)c2)C(=N)N1` (stereo in doubt) [Example 148, [4,4-diethyl-1-[[3-fluoro-5-[(6-fluoro-3-hydroxy-2,2-dimethyl-chroman-4-yl)carbamoyl]phenyl]methyl]-6-oxo-hexahydropyrimidin-2-ylidene]ammonium; 2,2,2-trifluoroacetate], the EC50 was 1 nM.
Same read-out and setting: next, `CCC1(CC)CC(=O)N([C@H](CCOC)c2cccc(C(=O)N[C@H]3C[C@H](C(F)(F)F)Oc4ccccc43)c2)C(=N)N1` [Example 132B, [4,4-diethyl-1-[3-methoxy-1-[3-[[(2R,4S)-2-(trifluoromethyl)chroman-4-yl]carbamoyl]phenyl]propyl]-6-oxo-hexahydropyrimidin-2-ylidene]ammonium; 2,2,2-trifluoroacetate]: 0.9 nM; `CCC[C@H](c1cccc(C(=O)N[C@H]2CCOc3ccccc32)c1)N1C(=N)NC(CC)(CC)CC1=O` [Example 13A, [1-[1-[3-[[(4S)-chroman-4-yl]carbamoyl]phenyl]butyl]-4,4-diethyl-6-oxo-hexahydropyrimidin-2-ylidene]ammonium; 2,2,2-trifluoroacetate]: 0.3 nM.
Still for that read-out and setting: for `CCC1(CC)CC(=O)N(C(COC)c2cccc(C(=O)N[C@@H]3c4ccccc4C[C@H]3O)c2)C(=N)N1` (stereo partly drawn) [Example 223, 3-[1-(4,4-diethyl-2-imino-6-oxo-hexahydropyrimidin-1-yl)-2-methoxy-ethyl]-N-[(1R,2R)-2-hydroxyindan-1-yl]benzamide] the value was 2.3 nM; for `CCC1(CC)CC(=O)N([C@H](CC(C)(C)O)c2cccc(C(=O)N[C@H]3CC(C)(C)Oc4ccccc43)c2)C(=N)N1` [Example 145, 3-[1-(4,4-diethyl-2-imino-6-oxo-hexahydropyrimidin-1-yl)-3-hydroxy-3-methyl-butyl]-N-[(4S)-2,2-dimethylchroman-4-yl]benzamide], 0.7 nM.
On the same count and under the same terms, for `CCC1(CC)CC(=O)N([C@H](c2ccccc2)c2cccc(C(=O)N[C@@H]3CCOc4ccccc43)c2)C(=N)N1` [Example 4B, [1-[[3-[[(4R)-chroman-4-yl]carbamoyl]phenyl]-phenyl-methyl]-4,4-diethyl-6-oxo-hexahydropyrimidin-2-ylidene]ammonium; 2,2,2-trifluoroacetate] the value was 35.4 nM; for `CCC1(CC)CC(=O)N([C@H](CCS(C)(=O)=O)c2cccc(C(=O)N[C@H]3C[C@H](C(F)(F)F)Oc4ccccc43)c2)C(=N)N1` [Example 162, [4,4-diethyl-1-[3-methylsulfonyl-1-[3-[[(2R,4S)-2-(trifluoromethyl)chroman-4-yl]carbamoyl]phenyl]propyl]-6-oxo-hexahydropyrimidin-2-ylidene]ammonium; 2,2,2-trifluoroacetate], 5.2 nM.
On to `CCC1(CC)CC(=O)N(C(c2cncc(C(=O)N[C@H]3CC(C)(C)Oc4ccccc43)c2)c2cncs2)C(=N)N1` (stereo partly drawn) [Example 105A, [1-[[5-[[(4S)-2,2-dimethylchroman-4-yl]carbamoyl]pyridin-1-ium-3-yl]-thiazol-5-yl-methyl]-4,4-diethyl-6-oxo-hexahydropyrimidin-2-ylidene]ammonium; 2,2,2-trifluoroacetate], for which the concentration giving a half-maximal response (EC50) amounted to 0.5 nM.
On the same count and under the same terms, next, `CCC1(CC)CC(=O)N(Cc2cccc(C(=O)N[C@@H]3c4ccccc4CC3(C)O)c2)C(=N)N1` (stereo in doubt) [Example 121, 3-[(4,4-diethyl-2-imino-6-oxo-hexahydropyrimidin-1-yl)methyl]-N-(2-hydroxy-2-methyl-indan-1-yl)benzamide]: 8.6 nM.
Turning to `CCC1(CC)CC(=O)N(Cc2ccnc(C(=O)N[C@@H]3c4ccccc4C[C@H]3O)c2)C(=N)N1` [Example 36, [4,4-diethyl-1-[[2-[[(1R,2R)-2-hydroxyindan-1-yl]carbamoyl]-4-pyridyl]methyl]-6-oxo-hexahydropyrimidin-2-ylidene]ammonium; 2,2,2-trifluoroacetate], the EC50 was 16.8 nM.

Still in this test, the particulars now being: parasite growth measured by LDH assay after 72 hours at 37° C.; 0.7% rings, 2% haematocrit; read-out: EC50.
For `CCC1(CC)CC(=O)N([C@H](CCOC)c2cc(F)cc(C(=O)N[C@@H]3c4ccccc4CC3(C)O)c2)C(=N)N1` (stereo in doubt) [Example 144B, 3-[1-(4,4-diethyl-2-imino-6-oxo-hexahydropyrimidin-1-yl)-3-methoxy-propyl]-5-fluoro-N-(2-hydroxy-2-methyl-indan-1-yl)benzamide], the EC50 amounted to 1.9 nM.
`CCC1(CC)CC(=O)N([C@H](CCOC)c2cc(F)cc(C(=O)N[C@@H]3c4ccccc4CC3(C)O)c2)C(=N)N1` (stereo in doubt) [Example 144D, 3-[1-(4,4-diethyl-2-imino-6-oxo-hexahydropyrimidin-1-yl)-3-methoxy-propyl]-5-fluoro-N-(2-hydroxy-2-methyl-indan-1-yl)benzamide]: the EC50 is 0.9 nM.
As to `CCC1(C)CC(=O)N([C@H](CCOC)c2cccc(C(=O)N[C@@H]3c4ccccc4CC3(C)O)c2)C(=N)N1` (stereo partly drawn) [Example 196A, 3-[(1R)-1-(4-ethyl-2-imino-4-methyl-6-oxo-hexahydropyrimidin-1-yl)-3-methoxy-propyl]-N-[(1R,2S)-2-hydroxy-2-methyl-indan-1-yl]benzamide], the EC50 worked out at 6.5 nM.
On the same count and under the same terms, next, `CCC1(CC)CC(=O)N(C(c2cncnc2)c2cccc(C(=O)NC3CC(C)(C)Oc4ccccc43)c2)C(=N)N1` (single isomer, unassigned) [Example 92A, 3-[(4,4-diethyl-2-imino-6-oxo-hexahydropyrimidin-1-yl)-pyrimidin-5-yl-methyl]-N-(2,2-dimethylchroman-4-yl)benzamide]: 25.5 nM.

The same test, now with this note: parasite growth measured by LDH assay after 72 hours at 37° C.; 0.7% rings, 2% haematocrit; trifluoroacetate; read-out: EC50.
Consider `C#CCCCC(c1cccc(C(=O)NC2CCOc3ccccc32)c1)N1C(=N)NC(CC)(CC)CC1=O` [Example 210C, [1-[1-[3-[[(4S)-chroman-4-yl]carbamoyl]phenyl]hex-5-ynyl]-4,4-diethyl-6-oxo-hexahydropyrimidin-2-ylidene]ammonium; 2,2,2-trifluoroacetate], for which the EC50 is 6.9 nM.
`CCC1(CC)CC(=O)N(Cc2cncc(C(=O)NC3CC(C)(C)Oc4ccccc43)c2)C(=N)N1` (stereo not shown) [Example 81, [1-[[5-[(2,2-dimethylchroman-4-yl)carbamoyl]pyridin-1-ium-3-yl]methyl]-4,4-diethyl-6-oxo-hexahydropyrimidin-2-ylidene]ammonium; 2,2,2-trifluoroacetate]: the EC50 was 1.3 nM.
